Measurements reported in patent US9060943B2, “Compositions comprising trans-tert-butyl cyclohexanol as skin irritation-reducing agent” (SYMRISE AG, priority 2009, dated 2015).

Legend:
recombinant human TRPV1 = biological target: T1, recombinant human TRPV1 (Homo sapiens, UniProt Q8NER1); assay: Calcium assay (Fluo-4) for TRPV1 antagonism in HEK293 cells in the presence of capsaicin; format: cell-based; settings: for TRPV1 antagonism (result in words), pre-incubation mode: isomer applied 10 min before addition of capsaicin; for TRPV1 antagonism (result in words): parallel application with capsaicin as agonist
T1 construct: expressed in transfected cells
T1 sequence (Q8NER1 whole entry): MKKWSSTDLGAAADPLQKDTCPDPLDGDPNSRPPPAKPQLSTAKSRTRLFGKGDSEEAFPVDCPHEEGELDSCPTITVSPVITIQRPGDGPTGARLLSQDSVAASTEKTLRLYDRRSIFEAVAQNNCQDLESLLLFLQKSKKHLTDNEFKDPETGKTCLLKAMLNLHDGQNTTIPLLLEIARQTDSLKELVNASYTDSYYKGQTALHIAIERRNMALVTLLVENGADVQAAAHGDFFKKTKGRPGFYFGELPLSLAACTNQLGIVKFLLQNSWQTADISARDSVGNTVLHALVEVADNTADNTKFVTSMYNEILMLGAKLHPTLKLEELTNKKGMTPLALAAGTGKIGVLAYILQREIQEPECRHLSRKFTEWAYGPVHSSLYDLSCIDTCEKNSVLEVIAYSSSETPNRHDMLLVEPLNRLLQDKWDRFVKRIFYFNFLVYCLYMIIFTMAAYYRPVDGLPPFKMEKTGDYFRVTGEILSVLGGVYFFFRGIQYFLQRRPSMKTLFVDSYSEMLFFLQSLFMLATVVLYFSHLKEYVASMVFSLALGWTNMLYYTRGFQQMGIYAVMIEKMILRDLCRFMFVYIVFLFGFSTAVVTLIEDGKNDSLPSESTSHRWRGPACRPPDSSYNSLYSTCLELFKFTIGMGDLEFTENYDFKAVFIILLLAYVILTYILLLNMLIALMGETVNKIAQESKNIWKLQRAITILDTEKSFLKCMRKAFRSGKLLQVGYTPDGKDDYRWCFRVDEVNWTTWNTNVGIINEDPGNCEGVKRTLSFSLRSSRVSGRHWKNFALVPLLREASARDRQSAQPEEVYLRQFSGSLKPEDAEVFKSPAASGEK
Method: Three samples of cis- and/or trans-4-tert-butyl cyclohexanol were assessed: 1) 99% trans-isomer, 2) an isomeric mixture enriched in the cis-isomer (59% cis, 41% trans) and 3) 99% cis-isomer.
Calciumassay based on fluorescent dye Fluo-4-AM
Negative Control: KH-buffer (solvent)
Positive Control: lonomycin (generell calcium induction)
Positive Control Capsaicin (natural agonist of TRPV1)
One day prior to performing the assay, HEK293 cells stably overexpressing recombinant human TRPV1 were plated onto black-walled assay plates, at a density of 45,000 cells per well. Using the FLEX Station system the change of the cellular calcium concentration (calcium influx) induced by TRPV1 activation was monitored using the calcium sensitive fluorescent dye fluo-4 (494 nm/516 nm (exitation/emission)). The pharmacological TRPV1 antagonist Ruthenium Red (1 μM) was used as positive control [J. Biol. Chem. 2004, 279 (34): 35741-8]. The dye-loaded stable cells in plates were placed into the fluorescence microtiter plate reader to monitor fluorescence (excitation 488 nm, emission 520 nm) change after the addition of 50 μl assay buffer (118 mM NaCl; 4.7 mM KCl; 1.2 mM MgSO4; 1.2 mM KH2PO4; 4.2 mM NaHCO3; 1.3 mM CaCl2; 10 mM HEPES (N-(2-hydroxyethyl)-piperazine-N′-2-ethanesulfonic acid) (pH: 7.4)) supplemented with an antagonist. Calcium mobilization was quantified as the change of peak fluorescence (ΔF) over the baseline level (F). The analysis was done with the software of the microtiter plate reader (FLEX Station). Potential TRPV1 antagonists were tested at an effective range of 0.5-50 μM. The test compounds were either applied in parallel to 30 nM capsaicin or 10 min prior to the agonist. TRPV1 antagonists were tested for their antagonistic activity in the presence of 30 nM capsaicin, which is the EC80 effective capsaicin concentration leading to 80% of the maximum capsaicin dependent TRPV1 activation.
Antagonistic efficacy of the isomers of 4-tert-butyl cyclohexanol on transient receptor potential ion channel 1 in cell based fluorescent analysis.
The three samples were tested for TRPV1 antagonism at parallel application with capsaicin as agonist.
TRPV1 antagonist in vitro at incubation prior to capsaicin: cis-4-tert-butyl cyclohexanol and trans-4-tert-butyl cyclohexanol were applied to HEK293 cells 10 min before capsaicin treatment.
We therefore additionally tested the pure cis- and trans-isomers of 4-tert-butyl cyclohexanol respectively in a pre-incubation mode with application of the respective isomer 10 min before addition of capsaicin.

[1] = system: volunteers who were sensitive to capsaicin; assay: Clinical study: stinging and burning at the nasolabial fold, O/W-emulsion with capsaicin with or without active; format: in vivo, human; settings: O/W-emulsion with 31.6 ppm capsaicin and 1 wt. % active on nasolabial fold; evaluated 3 minutes later; 20 volunteers
Method: A study was performed with 20 volunteers who were sensitive to capsaicin. […] On day 1 sample c2 was assessed versus control. On day 2 sample c1 was assessed versus control. The stinging and burning effects were evaluted 3 minutes later on the same scale as in Example 1.2.

[2] = system: volunteers who were sensitive to capsaicin; assay: In vivo testing: capsaicin-induced stinging on the cheek, O/W-emulsion versus placebo; parameters: species or system human; settings: O/W-emulsion with 1 wt. % applied 60 s after 31.6 ppm capsaicin on cheek; evaluated 5 minutes later; 9 volunteers
Method: A study was performed with 9 volunteers who were sensitive to capsaicin. […] After 60 seconds all participants sensed a pronounced stinging effect. Then, an O/W-emulsion with 1 wt. % racemic trans-4-tert-butyl cyclohexanol (purity >99 wt. %) was applied on one cheek and the placebo O/W-emulsion on the other cheek (blinded samples).

Row | Structure (SMILES) | TRPV1 antagonism (result in words), pre-incubation mode (recombinant human TRPV1) | TRPV1 antagonism (result in words) (recombinant human TRPV1) | EC80 effective capsaicin concentration (80% of maximum capsaicin dependent TRPV1 activation) (recombinant human TRPV1; agonist, HEK293 cells overexpressing human TRPV1) | average rating of inhibition/reduction of stinging and burning on scale 0 to 4 [1] | average rating of reduction of stinging effect on scale 0 (no effect) to 4 (completely suppressed) [2] | IC50 (recombinant human TRPV1; parallel application with 30 nM capsaicin as agonist, HEK293 cells overexpressing human TRPV1)
1 | CC(C)(C)[C@H]1CC[C@@H](O)CC1 [cis-4-tert-butyl cyclohexanol, reference compound] | not active | inactive | – | – | – | –
2 | COc1cc(CNC(=O)CCCC/C=C/C(C)C)ccc1O [capsaicin, reference compound] | – | – | 0.03 µM | – | – | –
3 | CC(C)(C)[C@H]1CC[C@H](O)CC1 [trans-4-tert-butyl cyclohexanol] | strong activity | significantly more active | – | 2.95 | 3.10 | 34.1 µM
